Test results published in patent publication EP1935887A1, “Heterocyclic substituted carbonyl derivatives and their use as dopamine D3 receptor ligands” (Aventis Pharmaceuticals Inc., priority 2001, dated 2002).

Molecular target: T1, Cloned Human Dopamine D3 Receptors (Homo sapiens, UniProt P35462)
T1 construct: expressed in transfected cells; membrane homogenate
Test: [N-Methyl-3H]Spiroperidol binding to cloned human dopamine D3 receptors
Conditions: Table 2; unit inferred; read-out: d3Ki
Text: [N-Methyl-^3H]Spiroperidol Binding to Cloned Human Dopamine D3 Receptors
This assay measures the in vitro activity of compounds on cloned human dopamine (D3) receptors and predicts the direct dopamine-blocking properties of putative neuropsychiatric agents at human dopamine D3 receptors.
The D3 gene was isolated from a human striatal cDNA library (Stratagene). The gene was sequenced and sub-cloned into the expression vector RC/RSV (Invitrogen). CHO (Chinese Hamster Ovary) cells were stably transfected with 10 µg of the D3/RSV plasmid using the DOTAP method from Boehringer Mannheim and 72 clones that were G418 resistant were isolated. Using mRNA and binding displacement data a single high expressing clone was identified. This clone was then grown in large batches for the purpose of developing a 96 well format assay.
• 1. One plate (10 cm) with approximately 2-3 million D3 cells per plate is incubated with 1 ml of Trypsin-EDTA at room temperature for -2 min or until cells have lifted off plates. Four ml of Ham's F12 + 10% Fetal Bovine Serum + 1% Penicillin/Streptomycin + G418 (400 µg/ml) medium are added to resuspend cells and 1 ml of this is added to each large plate (15 cm) containing 19 ml of the same medium as mentioned above. • 2. The 5 large plates are incubated at 37°C + 5% CO2 for - 3 days or until the cells are confluent. • 3. After these plates are confluent, they are split into 10 large plates. Medium is aspirated off, 2 ml of Trypsin-EDTA are added to each plate and plates are incubated at RT for 2 min or until cells have lifted off the plate. Eight ml of the F12 medium (same medium as #1 above) are added to each plate (10 ml total) to resuspend the cells and 5 ml are transferred to the 2 new plates containing 15 ml of the F12 media. • 4. The 10 large plates are incubated at 37°C + 5% CO2 for ∼ 2 days or until the cells are confluent. • 5. The 10 large plates are split into 60 large plates (using Trypsin-EDTA as #3 except 4 ml of F12 medium are added to resuspend cells and 1 ml is aliquoted to 6 new plates containing 19 ml of F12 medium each). • 6. Plates are incubated at 37°C + 5% CO2 for - 3 days or until cell are confluent. • 7. The 60 large plates are then split into 60 roller bottles (100-150 million cells/bottle). Medium is aspirated off , 2 ml of Trypsin-EDTA are added to each plate and incubated at RT for -2 minutes or until cells have lifted off plates. Eight ml of F12 medium are added to each plate to resuspend cells and the entire 10 ml are added to 1 roller bottle containing 90 ml of the F12 medium. • 8. The 60 roller bottles are immediately placed on their sides and transferred to the roller bottle incubator. They are incubated at 37°C + 5% CO2 for ~ 3-5 days. Cells are spun at 30-40% motor speed in the Forma incubator. • 9. Medium is poured off and cells are washed 2X in PBS. • 10. Cells are then scraped off in 20 ml of PBS and the bottles are rinsed again with 5 ml of PBS to remove any remaining cells. Cells are stored on ice before membrane prepration. • 11. The yield for 60 D3 roller bottles has varied from - 260-500 mg. Note: All tissue culture reagents are from Gibco-BRL.
The cells are harvested into 250 ml centrifuge tubes with 100 volumes of cold phosphate buffered saline (PBS) and spun down (1200xG for 10 min at 4°C). The medium is removed and 100 ml PBS are added to each centrifuge tube, cells are resuspened and spun down again. The PBS is removed and the final pellet is homogenized in an appropriate volume of 10% DMSO with a polytron on ice at a medium setting.
A 200 µl sample membrane homogenate is added to 200 µl of 1% SDS, vortexed and allowed to stand for 5 min. Aliquots (25, 50 and 100 µl) of this mixture are assayed in duplicate following the standard Bio-Rad DC protein assay protocol (kit catalog number 500-0112) and using reagent S. Absorbance readings are made at 750 nm (note: the most accurate protein OD readings are between 0.1-0.5 units). […]

T1 sequence (P35462 whole entry): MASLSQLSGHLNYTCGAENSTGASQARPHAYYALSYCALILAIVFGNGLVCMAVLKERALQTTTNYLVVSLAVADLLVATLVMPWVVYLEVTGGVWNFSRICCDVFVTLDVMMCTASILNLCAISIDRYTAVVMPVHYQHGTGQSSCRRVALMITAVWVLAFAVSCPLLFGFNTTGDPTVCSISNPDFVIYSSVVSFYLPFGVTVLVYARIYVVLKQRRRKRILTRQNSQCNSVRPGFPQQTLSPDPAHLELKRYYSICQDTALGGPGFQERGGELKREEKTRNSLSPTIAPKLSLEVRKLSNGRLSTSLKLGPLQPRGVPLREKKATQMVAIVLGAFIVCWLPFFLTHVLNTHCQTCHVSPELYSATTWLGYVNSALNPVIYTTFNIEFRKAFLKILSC

Ki [nM] | SMILES
30 | O=C(NCc1cccnc1)[C@@H]1C[C@H]1CN1CCN(c2csc3cc(C(F)(F)F)ccc23)CC1 [compound 822203]
12.6 | O=C(NCc1ccc2c(c1)OCO2)[C@@H]1C[C@H]1CN1CCN(c2csc3cc(C(F)(F)F)ccc23)CC1 [compound 822204]
137 | CC1C(CN2CCN(c3csc4cc(C(F)(F)F)ccc34)CC2)C1C(=O)NCc1ccc(N(C)C)cc1 (stereo not shown) [compound 825871]
186 | C[C@@]1(C(=O)NCc2ccc3ccccc3c2)C[C@H]1CN1CCN(c2csc3cc(C(F)(F)F)ccc23)CC1 [compound 825882]
40.2 | C[C@@]1(C(=O)NCc2ccc3c(c2)OCO3)C[C@H]1CN1CCN(c2csc3cc(C(F)(F)F)ccc23)CC1 [compound 825886]
90.4 | C[C@@]1(C(=O)NCc2nc3ccccc3[nH]2)C[C@H]1CN1CCN(c2csc3cc(C(F)(F)F)ccc23)CC1 [compound 825887]
89.4 | COc1cc(CNC(=O)[C@]2(C)C[C@H]2CN2CCN(c3csc4cc(C(F)(F)F)ccc34)CC2)cc(OC)c1OC [compound 825888]
73.8 | C[C@@]1(C(=O)NC2CC2)C[C@H]1CN1CCN(c2csc3cc(C(F)(F)F)ccc23)CC1 [compound 825893]
59 | CN(C)c1ccc(CNC(=O)[C@]2(C)C[C@H]2CN2CCN(c3csc4cc(C(F)(F)F)ccc34)CC2)cc1 [compound 825894]
31.7 | C[C@@]1(C(=O)NCC2CC2)C[C@H]1CN1CCN(c2csc3cc(C(F)(F)F)ccc23)CC1 [compound 825895]
53.3 | C[C@@]1(C(=O)NCc2ccccc2)C[C@H]1CN1CCN(c2csc3cc(C(F)(F)F)ccc23)CC1 [compound 825896]
140 | C[C@@]1(C(=O)NCc2ccco2)C[C@H]1CN1CCN(c2csc3cc(C(F)(F)F)ccc23)CC1 [compound 825897]
49 | C[C@@]1(C(=O)NCc2cccs2)C[C@H]1CN1CCN(c2csc3cc(C(F)(F)F)ccc23)CC1 [compound 825898]
42.9 | C[C@@]1(C(=O)NCc2ccc(C(F)(F)F)cc2)C[C@H]1CN1CCN(c2csc3cc(C(F)(F)F)ccc23)CC1 [compound 825899]
175 | O=C(NCc1ccccn1)[C@@H]1C[C@H]1CN1CCN(c2csc3cc(C(F)(F)F)ccc23)CC1 [compound 826065]
60.3 | CN(C)c1ccc(CNC(=O)[C@@H]2C[C@H]2CN2CCN(c3csc4cc(C(F)(F)F)ccc34)CC2)cc1 [compound 826066]
19.3 | O=C(NCC1CC1)[C@@H]1C[C@H]1CN1CCN(c2csc3cc(C(F)(F)F)ccc23)CC1 [compound 826067]
54.6 | O=C(NCc1ccccc1)[C@@H]1C[C@H]1CN1CCN(c2csc3cc(C(F)(F)F)ccc23)CC1 [compound 826068]
27.2 | O=C(NCc1ccco1)[C@@H]1C[C@H]1CN1CCN(c2csc3cc(C(F)(F)F)ccc23)CC1 [compound 826069]
12.6 | O=C(NCc1cccs1)[C@@H]1C[C@H]1CN1CCN(c2csc3cc(C(F)(F)F)ccc23)CC1 [compound 826070]
165 | O=C(NCc1ccc(C(F)(F)F)cc1)[C@@H]1C[C@H]1CN1CCN(c2csc3cc(C(F)(F)F)ccc23)CC1 [compound 826071]
62.6 | Cc1cccc(CNC(=O)[C@@H]2C[C@H]2CN2CCN(c3csc4cc(C(F)(F)F)ccc34)CC2)c1 [compound 826072]
72.6 | C[C@H](NC(=O)[C@@H]1C[C@H]1CN1CCN(c2csc3cc(C(F)(F)F)ccc23)CC1)c1ccccc1 [compound 826074]

Further lines, the compound ahead of its results:

SMILES | Ki [nM]
CN(C(=O)CCCCN1CCN(c2csc3cc(F)ccc23)CC1)c1ccccc1F [compound 822139] | 21.2
CN(C(=O)CCCCN1CCN(c2csc3cc(F)ccc23)CC1)c1ccc(C(C)(C)C)cc1 [compound 822140] | 12.8
CN(C(=O)CCCCN1CCN(c2csc3cc(F)ccc23)CC1)c1cccc(Oc2ccccc2)c1 [compound 822142] | 39.1
O=C(CCCCN1CCN(c2csc3cc(F)ccc23)CC1)N(Cc1ccccc1)c1cccc(Oc2ccccc2)c1 [compound 822143] | 338
COc1ccc(N(C)C(=O)CCCN2CCN(c3csc4cc(F)ccc34)CC2)cc1 [compound 822144] | 144
O=C(CCCN1CCN(c2csc3cc(F)ccc23)CC1)Nc1cccc2ccccc12 [compound 822145] | 176
CC(C)(C)c1ccc(NC(=O)CCCN2CCN(c3csc4cc(F)ccc34)CC2)cc1 [compound 822147] | 217
O=C(CCCN1CCN(c2csc3cc(F)ccc23)CC1)Nc1cccc(Oc2ccccc2)c1 [compound 822148] | 41.4
O=C(NC1CC1)[C@@H]1C[C@H]1CN1CCN(c2csc3cc(C(F)(F)F)ccc23)CC1 [compound 822202] | 8.1
CC1C(CN2CCN(c3csc4cc(C(F)(F)F)ccc34)CC2)C1C(=O)NC1CCC1 (stereo not shown) [compound 825857] | 137
CC1C(CN2CCN(c3csc4cc(C(F)(F)F)ccc34)CC2)C1C(=O)NC1CCCCC1 (stereo not shown) [compound 825860] | 130
CC1[C@@H](CN2CCN(c3csc4cc(C(F)(F)F)ccc34)CC2)[C@@H]1C(=O)NCC1CC1 (stereo partly shown) [compound 825872] | 104
O=C(NC1CCC1)[C@@H]1C[C@H]1CN1CCN(c2csc3cc(C(F)(F)F)ccc23)CC1 [compound 826073] | 32.3
O=C(NCc1cccc2ccccc12)[C@@H]1C[C@H]1CN1CCN(c2csc3cc(C(F)(F)F)ccc23)CC1 [compound 826075] | 55.6
O=C(NC1CCCCC1)[C@@H]1C[C@H]1CN1CCN(c2csc3cc(C(F)(F)F)ccc23)CC1 [compound 826076] | 15
COc1ccc(CNC(=O)[C@@H]2C[C@H]2CN2CCN(c3csc4cc(C(F)(F)F)ccc34)CC2)c(OC)c1 [compound 826077] | 88.9
O=C(Nc1cccc2c1CCCC2)[C@@H]1C[C@H]1CN1CCN(c2csc3cc(C(F)(F)F)ccc23)CC1 [compound 826078] | 162

Same assay, conditions: Table 2 part the 10th table; read-out: d3Ki

Ki [nM] | SMILES
118 | C[C@@]1(C(=O)N2CCCCC2)C[C@H]1CN1CCN(c2csc3cc(C(F)(F)F)ccc23)CC1 [compound 825891]
5.4 | O=C([C@@H]1CCC[C@H]1N1CCN(c2csc3cc(F)ccc23)CC1)N1CCCCC1 [compound 826056]

Same assay, conditions: read-out: d3Ki

Ki [nM] | SMILES
152 | O=C(NCc1ccccn1)[C@@H]1CCC[C@H]1N1CCN(c2csc3cc(F)ccc23)CC1 [compound 825825]
54.8 | O=C(NC1CC1)[C@@H]1CCC[C@H]1N1CCN(c2csc3cc(F)ccc23)CC1 [compound 825827]
21.8 | CN(C)c1ccc(CNC(=O)[C@@H]2CCC[C@H]2N2CCN(c3csc4cc(F)ccc34)CC2)cc1 [compound 825828]
64.6 | O=C(NCc1ccccc1)[C@@H]1CCC[C@H]1N1CCN(c2csc3cc(F)ccc23)CC1 [compound 825830]
60.3 | O=C(NCc1cccs1)[C@@H]1CCC[C@H]1N1CCN(c2csc3cc(F)ccc23)CC1 [compound 825832]
22.4 | Cc1cccc(CNC(=O)[C@@H]2CCC[C@H]2N2CCN(c3csc4cc(F)ccc34)CC2)c1 [compound 825900]
90.9 | O=C(NC1CCC1)[C@@H]1CCC[C@H]1N1CCN(c2csc3cc(F)ccc23)CC1 [compound 826057]
45.2 | CC(NC(=O)[C@@H]1CCC[C@H]1N1CCN(c2csc3cc(F)ccc23)CC1)c1ccccc1 (stereo partly shown) [compound 826058]
27.1 | O=C(NCc1cccc2ccccc12)[C@@H]1CCC[C@H]1N1CCN(c2csc3cc(F)ccc23)CC1 [compound 826059]
40.2 | O=C(NC1CCCCC1)[C@@H]1CCC[C@H]1N1CCN(c2csc3cc(F)ccc23)CC1 [compound 826060]
